Measured values published in publication PMC3809587, “Structure and function of the Smoothened extracellular domain in vertebrate Hedgehog signaling” (eLife, 2013).

What was measured:
ΔCRD-YFP-mSmo = target: T1, ΔCRD-YFP-mSmo (Mus musculus, UniProt P56726, DEL68-184); test: Hh signaling by ΔCRD-YFP-mSmo in Smo−/− cells (immunoblot, Hh reporter); type: cell-based
T1 construct: All mSmo mutants were made using Quickchange or PCR methods in the context of a previously described construct encoding full-length mouse Smo (UniProt P56726); expressed in transfected cells

zSmo ectodomain = target: T2, zSmo ectodomain (Danio rerio, UniProt Q5RH73); test: Ligand affinity chromatography: zSmo ectodomain binding to 20(S)-OHC beads; set-up: species or system zebrafish
T2 construct: zSmo-ectodomain: a.a; 29–212), fused C-terminally with a with a hexa-histidine (His6) tag; His6 (C); made in house
T2 sequence (Q5RH73 29-212): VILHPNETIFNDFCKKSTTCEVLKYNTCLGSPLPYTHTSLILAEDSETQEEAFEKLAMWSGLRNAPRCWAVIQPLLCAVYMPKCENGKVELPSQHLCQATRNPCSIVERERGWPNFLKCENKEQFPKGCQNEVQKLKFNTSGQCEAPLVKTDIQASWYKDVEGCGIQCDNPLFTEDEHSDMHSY
Protocol: For ligand affinity chromatography with purified mSmo CRD-Fc or zSmo ectodomain, protein was diluted in 20 mM Tris pH 8.5, 150 mM NaCl, 0.3% octyl-glucoside prior to addition of competitors and 20(S)-OHC beads. After binding was allowed to proceed for 12 hr at 4°C, the resin was washed and captured protein was eluted as described above. The presence of mSmo CRD-Fc was measured by an anti-human HRP-coupled antibody (1:20,000) or anti-human IR800-coupled antibody (1:10,000; for all quantitation, detected by LiCor Odyssey). The presence of zSmo ectodomain protein was measured by colloidal Coomassie staining (GelCode Blue, Pierce/Thermo Scientific).
For Hh reporter assays, each point is reported as the mean ± standard deviation (SD) derived from triplicates. Each result in the paper was repeated at least three times with similar outcomes. Relative luciferase activity was calculated by dividing Gli luciferase by Renilla luciferase luminescence. Fold-change in reporter activity was calculated by dividing each replicate by the mean reporter activity of the vehicle-treated control. Normalized (% of max) Hh reporter activity was calculated by setting the maximum value of a set to 100% and zero to 0% using the ‘normalize’ function of GraphPad Prism. […]

[1] = tested on: Drosophila melanogaster Smo (dSmo) and dSmo CRD; test: 20(S)-OHC bead binding of Drosophila Smo; conditions: bead-immobilized 20(S)-OHC
Zebrafish embryos = test: Zebrafish embryo treatment: eng2a:GFP reporter and ptch2 in situ hybridization; type: in vivo; conditions: 30hpf embryos, 20(S)-OHC 50 µM; for eng2a:GFP reporter expression: cyclopamine 40 µM
Protocol: Adult fishes were maintained on a 14-hr light/10-hr dark cycle at 28°C in the AVA (Singapore) certified IMCB Zebrafish Facility. Zebrafish strain used was Tg(eng2a:eGFP)^i233 ([Maurya et al., 2011]).
The embryos of Tg(eng2a:eGFP)^i233 were dechorinated using pronase (Roche) at one cell stage. […] Control embryos were kept in water containing the same amount of ethanol, used as the vehicle for the drugs. Standard in situ hybridization (ISH) was performed with anti-Dig alkaline phosphatase and chromogenic substrate NBT/BCIP as previously described ([Oxtoby and Jowett, 1993]). ptch2 (formerly ptc1) RNA probe was prepared from template as previously described ([Concordet et al., 1996]).

YFP-mSmo [2] = target: T3, YFP-mSmo (Mus musculus, UniProt P56726); test: 20(S)-OHC bead pull-down of YFP-mSmo from cell lysates; type: binding; conditions: 50 μM free 20(S)-OHC as competitor
T3 construct: Smo^−/− cells stably expressing full-length (FL) YFP-mSmo or ΔCRD-YFP-mSmo were treated with Shh, SAG (100 nM) or 20(S)-OHC (10 μM); expressed in transfected cells
Protocol: 293T cells transfected with constructs encoding mSmo variants were lysed in hypotonic SEAT buffer (250 mM sucrose, 1 mM EDTA, 10 mM acetic acid, 10 mM triethanolamine and the SigmaFast EDTA-Free protease inhibitor cocktail). After the removal of nuclei by centrifugation (900×g, 5 min, 4°C), membranes were pelleted by ultracentrifugation (95,000×g, 30 min) and solubilized in a n-dodecyl-β-D-maltopyranoside (DDM) extraction buffer (50 mM Tris pH 7.4, 150 mM NaCl, 10% vol/vol glycerol, 0.5% wt/vol DDM and the SigmaFast EDTA-Free protease inhibitor cocktail) for 2 hr at 4°C, followed by removal of insoluble material by ultracentrifugation (100,000×g, 30 min). This DDM membrane extract was incubated with 20(S)-OHC beads for 12 hr at 4°C to allow binding to equilibrium. After extensive washing, proteins captured on the beads were eluted with reducing SDS sample buffer. The presence of YFP-mSmo in these eluates was determined by quantitative immunoblotting with an anti-YFP antibody (NB600-308, 1:5000; Novus) and infrared imaging (Li-Cor Odyssey).

YFP-mSmo [3] = target: T3, YFP-mSmo; test: Gli1 and Gli3R immunoblot in Smo−/−:YFP-mSmo cells; type: cell-based; conditions: SAG 100 nM, 20(S)-OHC 10 μM
Protocol: Cultured cells stably expressing YFP-mSmo, ΔCRD-YFP-mSmo, or ΔC-YFP-mSmo were scraped into ice-cold PBS containing SigmaFast Protease inhibitor cocktail (Sigma) and collected as a pellet by centrifugation (1000×g, 10 min, 4°C). Cells were lysed (1 hr, 4°C) by agitation in modified RIPA buffer (50 mM sodium-Tris pH 7.4, 150 mM sodium chloride, 2% NP-40, 0.5% deoxycholate, 0.1% sodium-dodecyl sulfate [SDS], 1 mM dithiothreitol and the SigmaFast Protease inhibitor cocktail). After clarification (20,000×g, 45 min, 4°C), the protein concentration of each lysate was measured using the bicinchoninic acid assay (BCA, Pierce/Thermo Scientific, Rockford, IL). Lysate aliquots containing equal amount of total protein were fractionated on an 8% SDS-PAGE gel and transferred to a nitrocellulose membrane for immunoblotting with anti-Gli1 antibody (#L42B10, 1:500; Cell Signaling, Denvers, MA), anti-GFP antibody (1:5000; Novus, Littleton, CO), anti-Gli3 antibody (AF3690 1:200; R&D, Minneapolis, MN) and anti-p38 antibody (ab31828, 1:2000; Abcam, Cambridge, MA). In Figures 1–4, vertical dashed black lines represent non-contiguous lanes from the same immunoblot juxtaposed for clarity.

mSmo CRD-Fc = target: T4, mSmo CRD-Fc (Mus musculus, UniProt P56726); test: Ligand affinity chromatography: mSmo CRD-Fc binding to 20(S)-OHC beads; conditions: for inhibition of binding of mSmo CRD-Fc to 20(S)-OHC beads: free compound added as competitor
T4 construct: made in house; host or cells: 293F suspension cells (secreted)
T4 sequence (P56726 33-183): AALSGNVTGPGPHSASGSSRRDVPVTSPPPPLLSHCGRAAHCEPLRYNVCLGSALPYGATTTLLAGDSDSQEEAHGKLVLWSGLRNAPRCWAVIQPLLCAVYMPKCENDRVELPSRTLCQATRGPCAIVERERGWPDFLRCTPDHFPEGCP
Protocol: After binding was allowed to proceed for 12 hr at 4°C, the resin was washed and captured protein was eluted as described above. The presence of mSmo CRD-Fc was measured by an anti-human HRP-coupled antibody (1:20,000) or anti-human IR800-coupled antibody (1:10,000; for all quantitation, detected by LiCor Odyssey). The presence of zSmo ectodomain protein was measured by colloidal Coomassie staining (GelCode Blue, Pierce/Thermo Scientific). […]

[4] = tested on: endogenous mSmo in cilia of NIH 3T3 cells; set-up: method as in Rohatgi et al., 2009; conditions: absence of Shh; ref Rohatgi et al., 2009; cited from earlier work
[5] = tested on: Hh reporter (8xGli-responsive promoter); conditions: ref Nachtergaele et al., 2012; cited from earlier work
[6] = tested on: endogenous mSmo in cilia of NIH 3T3 cells; test: Immunofluorescence of ciliary Smo accumulation; type: cell-based, mouse; conditions: NIH 3T3, 4 hr, presence of Shh

T3 sequence (P56726 33-793): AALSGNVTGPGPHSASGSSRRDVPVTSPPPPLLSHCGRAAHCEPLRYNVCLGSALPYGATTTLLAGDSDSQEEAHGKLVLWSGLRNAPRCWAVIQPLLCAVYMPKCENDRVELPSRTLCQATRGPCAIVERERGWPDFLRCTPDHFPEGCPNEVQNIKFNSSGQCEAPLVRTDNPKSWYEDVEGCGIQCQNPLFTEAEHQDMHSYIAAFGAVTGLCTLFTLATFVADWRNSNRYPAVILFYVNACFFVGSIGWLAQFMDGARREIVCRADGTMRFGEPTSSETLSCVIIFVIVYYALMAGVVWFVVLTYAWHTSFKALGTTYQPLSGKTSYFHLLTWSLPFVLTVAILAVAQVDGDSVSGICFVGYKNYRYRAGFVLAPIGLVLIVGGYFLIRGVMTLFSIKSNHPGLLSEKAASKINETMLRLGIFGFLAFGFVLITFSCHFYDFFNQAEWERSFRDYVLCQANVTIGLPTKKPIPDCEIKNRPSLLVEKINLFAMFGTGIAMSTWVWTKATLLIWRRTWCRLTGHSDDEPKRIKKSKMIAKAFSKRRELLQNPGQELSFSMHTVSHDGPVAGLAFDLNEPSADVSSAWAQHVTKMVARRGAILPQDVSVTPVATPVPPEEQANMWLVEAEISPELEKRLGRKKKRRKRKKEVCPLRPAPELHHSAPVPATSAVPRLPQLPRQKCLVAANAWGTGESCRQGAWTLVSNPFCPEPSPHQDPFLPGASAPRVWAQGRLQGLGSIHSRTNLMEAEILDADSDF
T1 sequence (P56726 with tags, fused parts or gaps DEL68-184): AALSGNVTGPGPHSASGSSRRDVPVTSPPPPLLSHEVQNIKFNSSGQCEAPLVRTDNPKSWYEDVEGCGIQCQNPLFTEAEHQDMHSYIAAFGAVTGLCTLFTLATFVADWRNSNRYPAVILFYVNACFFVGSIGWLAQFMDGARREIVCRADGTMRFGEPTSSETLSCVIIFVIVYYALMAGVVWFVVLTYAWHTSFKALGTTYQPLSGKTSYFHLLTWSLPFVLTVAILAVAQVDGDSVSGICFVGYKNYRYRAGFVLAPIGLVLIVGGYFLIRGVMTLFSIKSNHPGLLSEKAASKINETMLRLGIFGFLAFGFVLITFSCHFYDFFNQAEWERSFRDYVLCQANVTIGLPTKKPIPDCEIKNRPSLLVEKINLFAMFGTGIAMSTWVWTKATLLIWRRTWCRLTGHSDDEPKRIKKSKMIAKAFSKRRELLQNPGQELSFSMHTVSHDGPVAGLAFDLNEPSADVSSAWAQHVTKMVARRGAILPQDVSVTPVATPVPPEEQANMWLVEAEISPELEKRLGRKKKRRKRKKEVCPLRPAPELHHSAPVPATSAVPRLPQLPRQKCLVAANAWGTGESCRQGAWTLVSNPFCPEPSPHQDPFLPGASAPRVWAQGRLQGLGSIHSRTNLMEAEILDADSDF

SMILES | response of ΔCRD-YFP-mSmo to agonist (Hh target genes, Gli3R) (ΔCRD-YFP-mSmo; SAG 100 nM, 20(S)-OHC 10 μM) | Kd (zSmo ectodomain; fixed amount of protein, increasing amounts of bead-immobilized sterol, read-out: Kd, zSmo ectodomain-20(S)-OHC interaction) | inhibition of binding of zSmo ectodomain to 20(S)-OHC beads (zSmo ectodomain; free compound added as competitor) | binding of dSmo and dSmo CRD to 20(S)-OHC beads [1] | ptch2 expression by in situ hybridization (Zebrafish embryos) | eng2a:GFP reporter expression (Zebrafish embryos) | competition of YFP-mSmo binding to 20(S)-OHC beads (YFP-mSmo [2]) | Gli3R level (YFP-mSmo [3]) | activation of Hh target gene Gli1 (YFP-mSmo [3]) | Kd (mSmo CRD-Fc; fixed amount of protein, increasing amounts of bead-immobilized sterol, read-out: Kd, mSmo CRD-Fc-20(S)-OHC interaction) | inhibition of binding of mSmo CRD-Fc to 20(S)-OHC beads (mSmo CRD-Fc) | inhibition of SAG activated ΔCRD-YFP-mSmo (ΔCRD-YFP-mSmo; SAG 25 nM, cyclopamine 5 μM, Hh reporter) | Smo accumulation in cilia, compound alone [4] | potency against Shh-activated Smo compared to 20(S)-OHC-activated Smo [5] | Shh-induced Smo accumulation in cilia [6]
CC(C)CCC[C@](C)(O)[C@H]1CC[C@H]2[C@@H]3CC=C4C[C@@H](O)CC[C@]4(C)[C@H]3CC[C@@]21C [20(S)-OHC, 20(S)-hydroxycholesterol] | failed to activate Hh target genes or to extinguish Gli3R levels | ~170 nM | inhibited in a dose-responsive fashion | failed to bind 20(S)-OHC beads | modest expansion of the expression domain | significant increase in the number of GFP positive fast twitch muscles | Binding to beads was not seen | loss of the repressor form of Gli3 (Gli3R) was observed | could activate a Hh target gene, Gli1 | ~180 nM | Binding could be inhibited |  |  |  | 
CC1=C2C[C@H]3[C@@H](CC=C4C[C@@H](O)CC[C@@]43C)[C@@H]2CC[C@]12O[C@@H]1C[C@H](C)CN[C@H]1[C@H]2C [cyclopamine] |  |  |  |  |  | suppressed expression of the reporter gene |  |  |  |  | blocked the interaction | remained susceptible to inhibition by cyclopamine | can drive Smo accumulation in cilia even in the absence of Shh | much less potent | do not block Smo ciliary accumulation
